In patent US20020137929A1, “1 - (3-heterocyclylphenyl) isothiourea, -isourea, -guanidine and -amidine herbicidal agents” (Intellectual Property Department, BASF Aktiengesellschaft, priority 1998, published 2002):

How the values were obtained:
ORYSAT (Rice, Tebonnet) = assay: Postemergence herbicidal evaluation; type: in vivo, Oryza sativa, (L.) Tebonnet; settings: postemergence
How it was run: (§1)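 ~2-wk seedlings; postemergence spray, 40 psi; vehicle 1:1 acetone:water + 0.5% Tween 20; rate ≈0.0156–0.500 kg/ha; greenhouse hold; scored 4–5 wk after treatment, 0–9 scale vs control; repeat tests averaged.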

SETVI (Foxtail, Green) [1] = assay: Preemergence herbicidal evaluation; type: in vivo, Setaria viridis; settings: rated 4-5 weeks after treatment, rating scale 0-9
How it was run: (§2)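 Scores use a 0–9 visual scale covering stand, vigor, malformation, size and chlorosis relative to controls, rated four to five weeks after treatment. Before emergence, soil-planted seeds were sprayed with compound in aqueous acetone at roughly 0.0156–0.500 kg/ha and held in the greenhouse.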

ZEAMX (Corn, Field) [2] = assay: Postemergence herbicidal evaluation; type: in vivo, Zea mays; settings: postemergence
How it was run: as §1

[3] = system: TRZAWR (Wheat, Winter, cv Riband); assay: Preemergence herbicidal evaluation; type: in vivo, Triticum aestivum; settings: rated 4-5 weeks after treatment, rating scale 0-9
How it was run: as §2

ZEAMX (Corn, Field) [4] = assay: Preemergence herbicidal evaluation; type: in vivo, Zea mays; settings: rated 4-5 weeks after treatment, rating scale 0-9
How it was run: as §2

SETVI (Foxtail, Green) [5] = assay: Postemergence herbicidal evaluation; type: in vivo, Setaria viridis; settings: postemergence
How it was run: as §1

CYPSE (Flatsedge) = assay: Preemergence weed control under flooded paddy conditions; type: in vivo, Cyperus serotinus; settings: rated 3-4 weeks after treatment
How it was run: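 Herbicidal effect is scored visually on a 0-9 scale against an untreated control, three to four weeks after compounds are pipetted into the flood water (1.5 to 3 cm deep) over seeds planted in silt loam at 0.5 cm depth. Rates: about 0.0313 to 0.500 kg/ha.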

CYPIR (Rice Flatsedge) = assay: as above; type: in vivo, Cyperus iria; settings: rated 3-4 weeks after treatment
How it was run: (§3)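 First, seeds or propagules go into the top 0.5 cm of silt loam; next, water is held 1.5 to 3 cm over the soil; then compound (50/50 acetone/water) is pipetted into it at about 0.0313 to 0.500 kg/ha; finally plants are rated visually 0-9 after three to four weeks.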

ECHCG (Barnyardgrass) = assay: Preemergence herbicidal evaluation; type: in vivo, Echinochloa crus-galli; settings: rated 4-5 weeks after treatment, rating scale 0-9
How it was run: as §2

[6] = system: ECHORC (Watergrass (Calif.)); assay: Preemergence weed control under flooded paddy conditions; type: in vivo, Echinochloa oryzoides; settings: rated 3-4 weeks after treatment
How it was run: as §3

| Structure (SMILES) | Herbicidal rating ORYSAT (ORYSAT (Rice, Tebonnet); rate 0.0156 kg/ha) | Herbicidal rating ORYSAT (ORYSAT (Rice, Tebonnet); rate 0.0313 kg/ha) | Herbicidal rating ORYSAT (ORYSAT (Rice, Tebonnet); rate 0.0625 kg/ha) | Preemergence herbicidal rating SETVI (SETVI (Foxtail, Green) [1]; rate 0.0313 kg/ha) | Preemergence herbicidal rating SETVI (SETVI (Foxtail, Green) [1]; rate 0.0625 kg/ha) | Preemergence herbicidal rating SETVI (SETVI (Foxtail, Green) [1]; rate 0.1250 kg/ha) | Preemergence herbicidal rating SETVI (SETVI (Foxtail, Green) [1]; rate 0.2500 kg/ha) | Herbicidal rating ZEAMX (ZEAMX (Corn, Field) [2]; rate 0.0156 kg/ha) | Herbicidal rating ZEAMX (ZEAMX (Corn, Field) [2]; rate 0.0313 kg/ha) | Herbicidal rating ZEAMX (ZEAMX (Corn, Field) [2]; rate 0.0625 kg/ha) | Preemergence herbicidal rating TRZAWR ([3]; rate 0.0313 kg/ha) | Preemergence herbicidal rating TRZAWR ([3]; rate 0.0625 kg/ha) | Preemergence herbicidal rating TRZAWR ([3]; rate 0.1250 kg/ha) | Preemergence herbicidal rating TRZAWR ([3]; rate 0.2500 kg/ha) | Preemergence herbicidal rating ZEAMX (ZEAMX (Corn, Field) [4]; rate 0.0313 kg/ha) | Preemergence herbicidal rating ZEAMX (ZEAMX (Corn, Field) [4]; rate 0.0625 kg/ha) | Preemergence herbicidal rating ZEAMX (ZEAMX (Corn, Field) [4]; rate 0.1250 kg/ha) | Preemergence herbicidal rating ZEAMX (ZEAMX (Corn, Field) [4]; rate 0.2500 kg/ha) | Herbicidal rating SETVI (SETVI (Foxtail, Green) [5]; rate 0.0156 kg/ha) | Herbicidal rating SETVI (SETVI (Foxtail, Green) [5]; rate 0.0313 kg/ha) | other results |
| --- | --- | --- | --- | --- | --- | --- | --- | --- | --- | --- | --- | --- | --- | --- | --- | --- | --- | --- | --- | --- | --- |
| Cn1c(C(F)(F)F)cc(=O)n(-c2cc(N=C3SCC(=O)N3Cc3cc(Cl)cc(Cl)c3)c(Cl)cc2F)c1=O [Compound 150, 3-{4-Chloro-5-{[3-(3,5-dichlorobenzyl)-4-oxo-2-thiazolidinylidene]amino}-2-fluorophenyl}-1-methyl-6-(trifluoromethyl)-2,4(1H,3H)-pyrimidinedione] | 2.0 | 2.5 | 3.0 | 0.0 | 0.0 | 4.0 | 9.0 | 4.0 | 4.0 | 4.0 | 0.0 | 0.0 | 1.0 | 1.0 | 0.0 | 1.0 | 2.0 | 1.0 | 1.0 | 1.0 | Herbicidal rating SETVI (SETVI (Foxtail, Green) [5]; rate 0.0625 kg/ha): 5.0; herbicidal effect rating, CYPSE (CYPSE (Flatsedge); 0.1250 kg/ha): 9.0; herbicidal effect rating, CYPSE (CYPSE (Flatsedge); 0.2500 kg/ha): 9.0; herbicidal effect rating, CYPIR (CYPIR (Rice Flatsedge); 0.0313 kg/ha): 9.0; herbicidal effect rating, CYPIR (CYPIR (Rice Flatsedge); 0.0625 kg/ha): 9.0; herbicidal effect rating, CYPIR (CYPIR (Rice Flatsedge); 0.1250 kg/ha): 9.0; herbicidal effect rating, CYPIR (CYPIR (Rice Flatsedge); 0.2500 kg/ha): 9.0; Preemergence herbicidal rating ECHCG (ECHCG (Barnyardgrass); rate 0.0313 kg/ha): 0.0; Preemergence herbicidal rating ECHCG (ECHCG (Barnyardgrass); rate 0.0625 kg/ha): 0.0; Preemergence herbicidal rating ECHCG (ECHCG (Barnyardgrass); rate 0.1250 kg/ha): 2.0; Preemergence herbicidal rating ECHCG (ECHCG (Barnyardgrass); rate 0.2500 kg/ha): 4.0; herbicidal effect rating, ECHORC ([6]; 0.0313 kg/ha): 6.0; herbicidal effect rating, ECHORC ([6]; 0.0625 kg/ha): 7.0; herbicidal effect rating, ECHORC ([6]; 0.1250 kg/ha): 9.0; herbicidal effect rating, ECHORC ([6]; 0.2500 kg/ha): 9.0 |
| Cn1c(C(F)(F)F)cc(=O)n(-c2cc(N=C3SCC(=O)N3Cc3ccc(F)cc3)c(Cl)cc2F)c1=O [Compound 151, 3-{4-Chloro-2-fluoro-5-{[3-(p-fluorobenzyl)-4-oxo-2-thiazolidinylidene]amino}phenyl}-1-methyl-6-(trifluoromethyl)-2,4(1H,3H)-pyrimidinedione] | 2.0 | 2.5 | 3.5 | 9.0 | 9.0 | 9.0 | 9.0 | 4.0 | 4.5 | 5.0 | 6.0 | 5.0 | 8.0 | 9.0 | 7.0 | 7.0 | 9.0 | 9.0 | 5.0 | 5.0 | Preemergence herbicidal rating SETVI (SETVI (Foxtail, Green) [1]; rate 0.0156 kg/ha): 9.0; Preemergence herbicidal rating TRZAWR ([3]; rate 0.0156 kg/ha): 2.0; Preemergence herbicidal rating ZEAMX (ZEAMX (Corn, Field) [4]; rate 0.0156 kg/ha): 7.0; Herbicidal rating SETVI (SETVI (Foxtail, Green) [5]; rate 0.0625 kg/ha): 9.0; herbicidal effect rating, CYPSE (CYPSE (Flatsedge); 0.0625 kg/ha): 7.0; herbicidal effect rating, CYPSE (CYPSE (Flatsedge); 0.2500 kg/ha): 7.0; herbicidal effect rating, CYPIR (CYPIR (Rice Flatsedge); 0.0313 kg/ha): 0.0; herbicidal effect rating, CYPIR (CYPIR (Rice Flatsedge); 0.0625 kg/ha): 2.0; herbicidal effect rating, CYPIR (CYPIR (Rice Flatsedge); 0.1250 kg/ha): 6.0; herbicidal effect rating, CYPIR (CYPIR (Rice Flatsedge); 0.2500 kg/ha): 8.0; Preemergence herbicidal rating ECHCG (ECHCG (Barnyardgrass); rate 0.0156 kg/ha): 2.0; Preemergence herbicidal rating ECHCG (ECHCG (Barnyardgrass); rate 0.0313 kg/ha): 9.0; Preemergence herbicidal rating ECHCG (ECHCG (Barnyardgrass); rate 0.0625 kg/ha): 7.0; Preemergence herbicidal rating ECHCG (ECHCG (Barnyardgrass); rate 0.1250 kg/ha): 9.0; Preemergence herbicidal rating ECHCG (ECHCG (Barnyardgrass); rate 0.2500 kg/ha): 9.0; herbicidal effect rating, ECHORC ([6]; 0.0313 kg/ha): 3.0; herbicidal effect rating, ECHORC ([6]; 0.0625 kg/ha): 5.0; herbicidal effect rating, ECHORC ([6]; 0.1250 kg/ha): 9.0; herbicidal effect rating, ECHORC ([6]; 0.2500 kg/ha): 9.0 |
